# Source: PubChem BioAssay (NCI)
#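 Assay format: 96-well plates, 48-hour exposure. GI50 is the concentration that inhibits growth by half. Definition used: TGI = concentration required for complete inhibition of growth.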
# Experiments:
# Assay in all cases: NCI anticancer screen, dose series, 48 h
# EKVX NSCLC = tested on: EKVX NSCLC
# IGROV1 ovarian = tested on: IGROV1 ovarian
# K-562 leukemia = tested on: K-562 leukemia
# A549 NSCLC = tested on: A549 NSCLC
# RXF 393 renal = tested on: RXF 393 renal
# SK-MEL-2 melanoma = tested on: SK-MEL-2 melanoma
# CCRF-CEM leukemia = tested on: CCRF-CEM leukemia
# UACC-62 melanoma = tested on: UACC-62 melanoma
# HT29 colon = tested on: HT29 colon
# KM12 colon = tested on: KM12 colon
SMILES,GI50 (EKVX NSCLC) [µM],TGI (EKVX NSCLC) [µM],GI50 (IGROV1 ovarian) [µM],TGI (IGROV1 ovarian) [µM],GI50 (K-562 leukemia) [µM],TGI (K-562 leukemia) [µM],GI50 (A549 NSCLC) [µM],TGI (A549 NSCLC) [µM],GI50 (RXF 393 renal) [µM],TGI (RXF 393 renal) [µM],GI50 (SK-MEL-2 melanoma) [µM],TGI (SK-MEL-2 melanoma) [µM],GI50 (CCRF-CEM leukemia) [µM],TGI (CCRF-CEM leukemia) [µM],GI50 (UACC-62 melanoma) [µM],TGI (UACC-62 melanoma) [µM],GI50 (HT29 colon) [µM],TGI (HT29 colon) [µM],GI50 (KM12 colon) [µM],TGI (KM12 colon) [µM]
CCC[CH2][Sn]([CH2]CCC)([O]C(=O)C(N)CSC)[O]C(=O)C(N)CSC (stereo not drawn),12.1,27.1,17.8,34.2,0.846,7.81,27.7,> 79.7,6.83,18.8,2.78,8.79,1.73,6.43,10.4,23,17.2,44.7,13.3,29.4
O=C1NC(=S)NC(=O)C1=Cc1cccc2cc3ccccc3cc12,,8.9,,3.61,,> 24,,12.7,,3.53,,4.1,,,,3.53,,3.74,,4.08
O=CN1N=C(c2ccc(Cl)cc2)CC1c1cccc(Nc2ccnc3cc(Cl)ccc23)c1 (stereo not drawn),1.59,> 100,1.44,> 100,0.388,10.2,2.03,94.2,1.4,5.87,,,1.42,23.1,1.14,19.6,1.28,7.61,1.22,76.5
C=C(C)CN(CC#N)CC(=C)C,,> 100,,> 100,,> 100,,> 100,,> 100,,> 100,,> 100,,> 100,,> 100,,> 100
Cc1cc(C)nc(NS(=O)(=O)c2ccc(Nc3c4ccc(Cl)cc4nc4c(C(=O)Nc5ccc(S(=O)(=O)N=C(N)N)cc5)cccc34)cc2)n1,,> 100,,,,> 100,,,,> 100,,,,> 100,,> 100,,> 100,,> 100
COc1ccc2c(c1)CCc1[nH]c3ccccc3c1CCCC2,,,,> 10,,> 10,,> 10,,,,,,> 10,,> 10,,> 10,,> 10
Nc1ncn(C2C=C(CO)C(O)C2O)c(=O)n1 (stereo not drawn),,> 100,,> 100,,> 100,,> 100,,> 100,,> 100,,,,> 100,,,,> 100
CC[O-].CC[O-].O=C1C(c2ccccc2)=C([O-])c2ccccc21.O=C1C(c2ccccc2)=C([O-])c2ccccc21.[Ti+4],60.1,> 100,> 100,> 100,,,> 100,> 100,,,> 100,> 100,,,72.6,> 100,> 100,> 100,62.9,> 100
COc1cc2c(Oc3ccc4[nH]c(C)cc4c3F)ccnc2cc1OCC1(N)CC1,2.79,> 100,1.16,13,0.416,12.3,,,0.671,4.22,1.68,3.79,1.57,12.9,1.64,3.79,0.874,3.3,1.24,12.5
O=c1[nH]ccc2nc(N3CCC(O)CC3)nc(Nc3cccc(C(F)(F)F)c3)c12,2.85,12.1,,,3.14,> 100,3.83,> 100,1.45,23.2,,,2.1,> 100,1.84,6.95,3.88,96.3,1.44,5.42
O=C([O][Hg][CH2]C1COCC([CH2][Hg][O]C(=O)c2ccccc2)O1)c1ccccc1 (stereo not drawn),19.6,37.4,2.1,4.17,2.61,11.9,12.6,27.2,1.99,3.56,13.2,29.6,0.804,5.08,16.4,32.4,,,16.6,31.5
CCCC(C)C[C@@H](C)CC(C)/C=C(\C)c1oc(=O)c(C)c(O)c1C (stereo partly drawn) (tested in a mixture with another compound),,31.9,,,,,,34,,26.6,,22.8,,,,,,27.6,,41.4
COC(=O)C12CC3CC(C1)CC(C(=O)OC)(C3)C2,,> 100,,> 100,,,,> 100,,,,,,> 100,,> 100,,> 100,,> 100
CCc1nc(N)nc(C(=O)NCCNC(=O)c2nc(N)nc(CC)c2C)c1C,,> 100,,> 100,,> 100,,> 100,,> 100,,> 100,,,,> 100,,> 100,,> 100
CN1CCCCCC(=N\O)/C(=N/O)CCCCC1,,> 100,,> 100,,> 100,,> 100,,> 100,,,,> 100,,,,> 100,,> 100
C=CCN(CC=C)C(=O)c1cc(C)nc2c1c(=O)n(-c1ccccc1)c(=O)n2CC(O)CN1CCN(c2ncccn2)CC1 (stereo not drawn),> 100,> 100,> 100,> 100,> 100,> 100,,,,,> 100,> 100,> 100,> 100,> 100,> 100,> 100,> 100,> 100,> 100
Cc1cc(-c2nnc(N)nc2-c2ccc(F)cc2)cc(Cl)n1,59.9,> 100,> 100,> 100,59,> 100,> 100,> 100,87.2,> 100,> 100,> 100,93.1,> 100,,,> 100,> 100,> 100,> 100
Cc1cccc(Cl)c1NC(=O)/C=C/c1ccccc1,,> 100,,> 100,,> 100,,> 100,,,,> 100,,> 100,,> 100,,> 100,,> 100
